Reference: US9260439B2, “Dihydropyrrolopyrimidine derivatives” (PFIZER INC., priority 2014, dated 2016)

Experiments:
[1] = target: full-length PI3Kα (full-length p110α/p85α) (Homo sapiens (Human), UniProt P42336); assay: PI3KA_FL fluorescence polarization kinase assay (Ki); type: biochemical; details: 41 μM ATP
Source text: Enzyme Production for Biochemical Assays: 1) PI3Kα Complex (Full Length p110α and p85α)(“PI3KA_FL”)
Genes encoding for full length p110α and p85α subunits of PI3Kα complex were subcloned from existing constructs into pFASTBAC Dual vector (Life Technologies, Carlsbad, Calif.) using standard cloning procedures. Gene encoding p110α subunit was subcloned into polyhedrine promoter while gene encoding p85α subunit was subcloned into p10 promoter. Additionally, sequence encoding for histidine tag and Tobacco Etch Virus (“TEV”) cleavage site preceded p110α ORF (Open Reading Frame). Recombinant baculovirus was generated using Bac-to-Bac protocol (Life Technologies, Carlsbad, Calif.) and large scale expression was conducted in Sf21 (Life Technologies, Carlsbad, Calif.) cells at a multiplicity of infection (“MOI”)=1 for 72 hours. Cells were lyzed in 50 mM Tris pH 8.0, 250 mM NaCl, 5% glycerol, 0.25 mM TCEP, and 20 mM imidazole. The PI3Kα complex was purified from clarified supernatant using Immobilized Metalo Affinity Chromatography (“IMAC”). The protein was eluted from the column using 50 mM Tris pH 8.0, 200 mM NaCl, 5% glycerol, 0.25 mM TCEP, and 200 mM imidazole, and further desalted into 50 mM Tris pH 8.0, 20 mM NaCl, and 0.25 mM TCEP prior to loading on MonoQ sepharose (GE Healthcare, Piscataway, N.J.). PI3Kα complex was eluted from MonoQ sepharose over 20 column volumes using 0-30% gradient of buffer B (50 mM Tris pH 8.0, 1 M NaCl, and 0.25 mM TCEP). The peak fractions were pulled together and loaded on Superdex 200 26/60 SEC column equilibrated in 50 mM Tris pH 8.0, 200 mM NaCl, and 0.5 mM TCEP. […] Purity and integrity of the complex was confirmed using LCMS, analytical SEC and SDS-PAGE (sodium dodecyl sulfate polyacrylamide gel electrophoresis) analysis.
The biochemical assays of kinase activity of full-length PI3Kα (full-length p110α/p85a) or truncated PI3Kα (p110α/iSH2 p85a) were conducted using a fluorescence polarization format similar to the procedure of Yuan J., et al., (2011) “PF-04691502, a Potent and Selective Oral Inhibitor of PI3K and mTOR Kinases with Antitumor Activity”, Mol Cancer Ther. 10, 2189-2199. The enzymatic reactions were conducted in 50 μL volumes in 96-well plates. The reactions contained human recombinant PI3Kα (2 nM full-length p110α/p85α or 0.5 nM p110α/iSH2 p85) and 30 μM phosphatidylinositol 4,5-bisphosphate (“PIP2”) (Cayman Chemical Company, Ann Arbor, Mich.) and were sonicated for 1 minute prior to adding PI3Kα enzyme (PI3KA_Act or PI3KA_FL), DMSO or test compound (12-point 3-fold serial dilution, 3 μM top dose, 2° A) DMSO final concentration), 5 mM MgCl2, 50 mM HEPES pH 7.4, 150 mM NaCl, 1 mM DTT ((2S,3S)-1,4-bis(sulfanyl)butane-2,3-diol), and 0.05% 3-[(3-cholamidopropyl)dimethylammonio]-1-propanesulfonate (“CHAPS”). […] The reactions were incubated for 30 min at room temperature, stopped with EDTA pH 8 (10 mM final concentration). In a detection plate, 15 μL of detector/probe mixture, containing 480 nM GST-Grp1 PH domain protein (University of Dundee, Dundee, UK) and 12 nM carboxytetramethylrhodamine (“TAMRA”)-tagged fluorescent phosphatidylinositol (3,4,5)-triphosphate (“PIP3”) (Echelon Biosciences, Inc., Salt Lake City, Utah) in assay buffer, was mixed with 15 μL of kinase reaction mixture. The plate was shaken for 30 minutes and fluorescence polarization values were measured on an LJL Analyst HT plate reader (Molecular Devices, Sunnyvale, Calif.). […] The inhibition constants (Ki) were calculated by fitting fluorescence polarization values, corresponding to initial reaction rates, to the Morrison equation (Morrison, J. F. (1969) Kinetics of the reversible inhibition of enzyme catalysed reactions by tight-binding inhibitors. Biochim. Biophys. Acta 185, 269-286) for tight-binding competitive inhibitors using non-linear regression method (GraphPad Prism, GraphPad Software, San Diego, Calif.).

[2] = target: truncated PI3Kα (p110α/iSH2 p85α) (Homo sapiens (Human), UniProt P42336); assay: PI3KA_Act fluorescence polarization kinase assay (Ki); type: biochemical; details: 1 mM ATP
Method in brief: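 p110α/iSH2 p85α (0.5 nM) was reacted with 30 μM sonicated PIP2 in 50 mM HEPES pH 7.4, 150 mM NaCl, 5 mM MgCl2, 1 mM DTT and 0.05% CHAPS for 30 min at room temperature, then stopped with EDTA. PIP3 was detected by fluorescence polarization (GST-Grp1 PH domain/TAMRA-PIP3), and Ki came from a Morrison tight-binding fit.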

Chain of truncated PI3Kα (p110α/iSH2 p85α) (P42336 whole entry, the tested form may be a part): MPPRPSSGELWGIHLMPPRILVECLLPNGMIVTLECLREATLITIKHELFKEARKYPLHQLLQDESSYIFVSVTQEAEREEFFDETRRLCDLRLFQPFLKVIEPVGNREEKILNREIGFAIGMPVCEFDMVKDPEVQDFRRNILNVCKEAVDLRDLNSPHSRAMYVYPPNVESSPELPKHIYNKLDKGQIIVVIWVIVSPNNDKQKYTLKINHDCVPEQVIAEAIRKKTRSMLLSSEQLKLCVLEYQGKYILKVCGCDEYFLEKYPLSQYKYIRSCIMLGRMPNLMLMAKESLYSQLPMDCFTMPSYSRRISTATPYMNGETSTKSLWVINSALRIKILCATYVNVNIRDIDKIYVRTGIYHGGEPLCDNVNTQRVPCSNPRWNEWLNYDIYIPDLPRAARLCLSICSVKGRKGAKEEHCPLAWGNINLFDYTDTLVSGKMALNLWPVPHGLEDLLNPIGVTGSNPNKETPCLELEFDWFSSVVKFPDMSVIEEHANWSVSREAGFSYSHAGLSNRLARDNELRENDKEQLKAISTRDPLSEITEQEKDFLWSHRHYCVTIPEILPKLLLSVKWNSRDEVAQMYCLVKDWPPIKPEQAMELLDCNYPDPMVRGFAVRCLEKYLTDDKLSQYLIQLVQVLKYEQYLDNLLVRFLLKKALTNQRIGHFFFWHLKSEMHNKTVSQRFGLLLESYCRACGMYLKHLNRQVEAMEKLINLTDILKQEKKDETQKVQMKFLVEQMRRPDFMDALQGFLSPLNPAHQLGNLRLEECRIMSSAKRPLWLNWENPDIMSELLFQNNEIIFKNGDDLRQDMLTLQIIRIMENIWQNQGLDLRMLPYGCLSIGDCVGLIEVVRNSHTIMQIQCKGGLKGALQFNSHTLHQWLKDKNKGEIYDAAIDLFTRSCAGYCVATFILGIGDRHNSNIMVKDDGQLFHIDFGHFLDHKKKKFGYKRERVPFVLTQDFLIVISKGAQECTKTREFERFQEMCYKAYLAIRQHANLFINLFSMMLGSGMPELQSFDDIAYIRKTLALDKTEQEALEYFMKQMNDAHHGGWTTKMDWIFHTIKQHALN
Chain of full-length PI3Kα (full-length p110α/p85α) (P42336 whole entry): as the sequence (P42336 whole entry, the tested form may be a part) above
Chain of full-length PI3Kα (full-length p110α/p85α) (P27986 whole entry partner): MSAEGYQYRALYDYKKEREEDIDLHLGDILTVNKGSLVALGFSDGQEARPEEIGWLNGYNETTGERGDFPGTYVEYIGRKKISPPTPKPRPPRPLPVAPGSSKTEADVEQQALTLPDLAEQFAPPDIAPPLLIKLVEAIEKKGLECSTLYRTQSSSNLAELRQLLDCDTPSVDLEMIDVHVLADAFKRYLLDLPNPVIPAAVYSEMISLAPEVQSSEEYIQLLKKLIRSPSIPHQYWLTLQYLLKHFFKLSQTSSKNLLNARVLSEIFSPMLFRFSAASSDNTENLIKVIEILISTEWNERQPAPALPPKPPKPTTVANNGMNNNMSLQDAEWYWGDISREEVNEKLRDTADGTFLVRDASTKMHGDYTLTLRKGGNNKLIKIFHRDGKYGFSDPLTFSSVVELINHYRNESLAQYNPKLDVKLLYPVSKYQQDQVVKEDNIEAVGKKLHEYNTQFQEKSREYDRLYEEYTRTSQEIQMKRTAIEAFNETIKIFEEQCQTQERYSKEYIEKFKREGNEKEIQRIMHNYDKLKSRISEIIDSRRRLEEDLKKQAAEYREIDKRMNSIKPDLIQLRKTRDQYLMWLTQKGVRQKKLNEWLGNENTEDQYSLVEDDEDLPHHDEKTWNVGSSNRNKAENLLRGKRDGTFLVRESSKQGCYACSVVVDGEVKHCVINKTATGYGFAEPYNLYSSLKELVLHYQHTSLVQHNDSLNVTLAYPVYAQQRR

Compound | PI3KA_FL Ki (nM) [1] | PI3KA_Act Ki [2] | PI3KA_FL Ki [1]
CC1(N2CCc3c(-c4cnc(N)nc4)nc(N4CCOCC4)nc32)CCN(S(C)(=O)=O)C1 (racemic) [Example 146] | ≦0.229 nM | 15 pM | –
Nc1ncc(-c2nc(N3CCOCC3)nc3c2CCN3[C@H]2CCC(F)(F)C2)cn1 (single isomer, unassigned) [Example 34] | – | 730 pM | 469 pM
Nc1ncc(-c2nc(N3CCOCC3)nc3c2CCN3[C@@H]2CCC(F)(F)C2)cn1 (single isomer, unassigned) [Example 35] | – | 311 pM | 393 pM
CC(=O)N1C[C@@H](F)[C@@H](N2CCc3c(-c4cnc(N)nc4)nc(N4CCOCC4)nc32)C1 (single isomer, unassigned) [Example 74] | – | 2441 pM | 5079 pM
CC(C)S(=O)(=O)N1CC(N2CCc3c(-c4cnc(N)nc4)nc(N4CCOC[C@@H]4C)nc32)C1 [Example 1, 5-{2-[(3S)-3-methylmorpholin-4-yl]-7-[1-(propan-2-ylsulfonyl)azetidin-3-yl]-6,7-dihydro-5H-pyrrolo[2,3-d]pyrimidin-4-yl}pyrimidin-2-amine] | ≦0.229 nM | 102 pM | –
Nc1ncc(-c2nc(N3CCOCC3)nc3c2CCN3C2CC(F)(F)C2)cn1 [Example 13] | – | 211 pM | 307 pM
CS(=O)(=O)N1CC[C@H](N2CCc3c(-c4cnc(N)nc4)nc(N4CCOCC4)nc32)C1 [Example 20] | ≦0.229 nM | 153 pM | –
CNS(=O)(=O)N1CC[C@H](N2CCc3c(-c4cnc(N)nc4)nc(N4CCOCC4)nc32)C1 [Example 38] | – | 124 pM | 228 pM
CNS(=O)(=O)N(C)[C@H]1C[C@H](N2CCc3c(-c4cnc(N)nc4)nc(N4CCOCC4)nc32)C1 [Example 46] | – | 187 pM | 412 pM
CNS(=O)(=O)N(C)[C@H]1C[C@@H](N2CCc3c(-c4cnc(N)nc4)nc(N4CCOCC4)nc32)C1 [Example 57] | – | 465 pM | 318 pM
N#C[C@H]1C[C@H](N2CCc3c(-c4cnc(N)nc4)nc(N4CCOCC4)nc32)C1 [Example 59] | ≦0.229 nM | 122 pM | –
COC(=O)N1CC(N2CCc3c(-c4cnc(N)nc4)nc(N4CCOCC4)nc32)C1 [Example 61] | – | 235 pM | 234 pM
Nc1ncc(-c2nc(N3CCOCC3)nc3c2CCN3C2CN(S(N)(=O)=O)C2)cn1 [Example 72] | ≦0.229 nM | 129 pM | –
CS(=O)(=O)N1CC(N2CCc3c(-c4cnc(N)nc4)nc(N4CCOCC4)nc32)C1 [Example 73] | – | 303 pM | 350 pM
C[C@H]1COCCN1c1nc(-c2cnc(N)nc2)c2c(n1)N([C@H]1CCN(C(=O)OC(C)(C)C)C1)CC2 [Example 76] | – | 182 pM | 359 pM
C[C@H]1COCCN1c1nc(-c2cnc(N)nc2)c2c(n1)N([C@H]1CCN(S(C)(=O)=O)C1)CC2 [Example 79] | ≦0.229 nM | 257 pM | –
CN(C)S(=O)(=O)N1CC[C@H](N2CCc3c(-c4cnc(N)nc4)nc(N4CCOCC4)nc32)C1 [Example 82] | – | 100 pM | 240 pM
CNS(=O)(=O)N1CC[C@@H](N2CCc3c(-c4cnc(N)nc4)nc(N4CCOC[C@@H]4C)nc32)C1 [Example 85] | – | 239 pM | 283 pM
CNS(=O)(=O)N1CC[C@@H](N2CCc3c(-c4cnc(N)nc4)nc(N4CCOC[C@@H]4C)nc32)C1 [Example 92] | – | 376 pM | 475 pM

Compound | PI3KA_FL Ki (nM) [1] | PI3KA_Act Ki [2] | PI3KA_FL Ki [1]
CS(=O)(=O)N1CCC[C@@H](N2CCc3c(-c4cnc(N)nc4)nc(N4CCOCC4)nc32)C1 [Example 93] | – | 603 pM | 506 pM
CNS(=O)(=O)O[C@H]1C[C@H](N2CCc3c(-c4cnc(N)nc4)nc(N4CCOCC4)nc32)C1 [Example 95] | ≦0.229 nM | 78 pM | –
C[C@H]1COCCN1c1nc(-c2cnc(N)nc2)c2c(n1)N([C@H]1CCN(S(N)(=O)=O)C1)CC2 [Example 100] | ≦0.229 nM | 132 pM | –
CCS(=O)(=O)N1CC[C@H](N2CCc3c(-c4cnc(N)nc4)nc(N4CCOCC4)nc32)C1 [Example 101] | ≦0.229 nM | 93 pM | –
Nc1ncc(-c2nc(N3CCOCC3)nc3c2CCN3[C@H]2CCN(S(=O)(=O)C3CC3)C2)cn1 [Example 102] | ≦0.229 nM | 67 pM | –
CNS(=O)(=O)O[C@H]1C[C@@H](N2CCc3c(-c4cnc(N)nc4)nc(N4CCOCC4)nc32)C1 [Example 104] | ≦0.229 nM | 79 pM | –
CS(=O)(=O)N[C@H]1C[C@H](N2CCc3c(-c4cnc(N)nc4)nc(N4CCOCC4)nc32)C1 [Example 105] | – | 157 pM | 285 pM
CC(C)S(=O)(=O)N1CC[C@H](N2CCc3c(-c4cnc(N)nc4)nc(N4CCOCC4)nc32)C1 [Example 106] | ≦0.229 nM | 64 pM | –
CC(C)OC(=O)N1CC[C@H](N2CCc3c(-c4cnc(N)nc4)nc(N4CCOC[C@@H]4C)nc32)C1 [Example 124] | – | – | 333 pM
C[C@H]1COCCN1c1nc(-c2cnc(N)nc2)c2c(n1)N([C@@H]1CN(S(N)(=O)=O)C[C@H]1O)CC2 [Example 127] | – | – | 789 pM
CN(C)S(=O)(=O)[C@H]1CC[C@@H](N2CCc3c(-c4cnc(N)nc4)nc(N4CCOCC4)nc32)C1 [Example 129] | – | – | 380 pM
CNS(=O)(=O)[C@H]1CC[C@@H](N2CCc3c(-c4cnc(N)nc4)nc(N4CCOCC4)nc32)C1 [Example 130] | – | – | 352 pM
COCCOC(=O)N1CC[C@H](N2CCc3c(-c4cnc(N)nc4)nc(N4CCOC[C@@H]4C)nc32)C1 [Example 133] | – | – | 468 pM
CC(C)N1CCc2c(-c3cnc(N)nc3)nc(N3CCOCC3)nc21 [Example 134] | – | – | 3883 pM
CC(C)(C)NC(=O)N1CC[C@@H](N2CCc3c(-c4cnc(N)nc4)nc(N4CCOCC4)nc32)C1 [Example 135] | – | – | 5159 pM
Nc1ncc(-c2nc(N3CCOCC3)nc3c2CCN3[C@@H]2CC[C@H](S(N)(=O)=O)C2)cn1 [Example 137] | – | – | 664 pM
C[C@H]1COCCN1c1nc(-c2cnc(N)nc2)c2c(n1)N([C@@H]1CCN(C(=O)NC(C)(C)C)C1)CC2 [Example 138] | – | – | 5547 pM
CC(C)(C)NC(=O)N1CC[C@H](N2CCc3c(-c4cnc(N)nc4)nc(N4CCOCC4)nc32)C1 [Example 139] | – | – | 596 pM
